The experiment has as its target T1, Recombinant full length human OGA enzyme (Homo sapiens, UniProt O60502).
T1 construct: Recombinant full length human OGA enzyme; purchased Origene
T1 sequence (O60502 1-916): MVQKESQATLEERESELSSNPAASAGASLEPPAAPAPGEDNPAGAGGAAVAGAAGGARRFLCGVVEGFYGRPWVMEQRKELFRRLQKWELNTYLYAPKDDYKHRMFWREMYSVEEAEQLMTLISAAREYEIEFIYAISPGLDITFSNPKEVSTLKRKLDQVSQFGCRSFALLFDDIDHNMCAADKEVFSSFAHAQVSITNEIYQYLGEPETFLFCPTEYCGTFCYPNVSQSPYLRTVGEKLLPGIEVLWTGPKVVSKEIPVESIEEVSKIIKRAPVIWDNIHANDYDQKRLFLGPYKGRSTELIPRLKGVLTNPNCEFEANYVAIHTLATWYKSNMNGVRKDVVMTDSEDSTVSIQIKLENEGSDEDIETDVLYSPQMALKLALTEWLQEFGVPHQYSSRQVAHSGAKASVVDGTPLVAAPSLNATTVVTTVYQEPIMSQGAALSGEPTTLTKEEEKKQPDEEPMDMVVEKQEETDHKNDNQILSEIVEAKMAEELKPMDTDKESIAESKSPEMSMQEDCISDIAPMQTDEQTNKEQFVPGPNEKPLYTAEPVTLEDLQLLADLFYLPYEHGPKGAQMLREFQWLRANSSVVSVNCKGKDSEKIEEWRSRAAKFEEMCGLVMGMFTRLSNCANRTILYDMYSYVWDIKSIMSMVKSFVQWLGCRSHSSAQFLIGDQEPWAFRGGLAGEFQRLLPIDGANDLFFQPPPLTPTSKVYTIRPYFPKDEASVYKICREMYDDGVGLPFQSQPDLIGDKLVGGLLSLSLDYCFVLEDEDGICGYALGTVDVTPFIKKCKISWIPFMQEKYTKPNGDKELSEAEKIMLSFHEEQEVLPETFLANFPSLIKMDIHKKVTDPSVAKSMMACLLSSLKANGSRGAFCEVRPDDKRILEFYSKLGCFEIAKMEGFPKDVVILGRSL
Put plainly: OGA Enzyme Inhibition Biochemical Assay. As to conditions: 1 nM OGA, 100 μM 4-MUGlcNAc (Km), pH 6.4, 90 minutes at room temperature, 10-point dose-response starting from 20 μM. The method, then: OGA Enzyme Inhibition Biochemical Assay
Recombinant full length human OGA enzyme was purchased from Origene. 4-MUGlCNAc substrate was purchased from Sigma. All other reagents were purchased from Sigma or Fisher. Assay buffer consists of the Mcllvaine buffer system, pH 6.4 (0.2M Na2HPO4 mixed with 0.1M citric acid) and 0.01% BSA. Reactions consist of 1 nM OGA, 100 μM 4-MUGlcNAc (Km), and compound in a final volume of 10 μl. Reactions were incubated for 90 minutes at room temperature and quenched with […] of 3M glycine, pH 10 and read on a Perkin Elmer Envision plate reader (Ex: 355 nm/Em: 460 nm). Compounds were tested with a 10-point dose-response starting from 20 μM with a 4-fold dilution. Data was fit using GraphPad Prism using a 4-parameter fit with variable slope.
A word on the IC50: it is the midpoint of a concentration-inhibition curve. Take `CC(=O)Nc1ncc(CN2CC(c3ncc(F)cn3)C2)s1` [Example 5-1]: the IC50 was 350 nM.
The value for `CC(=O)Nc1ncc(CN2CC(OCc3noc(C)n3)C2)s1` [Example 1-3, N-(5-((3-((5-methyl-1,2,4-oxadiazol-3-yl)methoxy)azetidin-1-yl)methyl)thiazol-2-yl)acetamide] was 220 nM; that for `CC(=O)Nc1ncc(CN2CC(NCc3cc(C)nc(C)c3)C2)s1` [Example 3-1, N-(5-((3-(((2,6-dimethylpyridin-4-yl)methyl)amino)azetidin-1-yl)methyl)thiazol-2-yl)acetamide] was 91 nM.
For `CC(=O)Nc1ncc(CN2C[C@H](Oc3ccc(F)cn3)[C@H]2C)s1` [Example 2-9, N-(5-(((2R,3S)-3-((5-fluoropyridin-2-yl)oxy)-2-methylazetidin-1-yl)methyl)thiazol-2-yl)acetamide], the IC50 came out at 170 nM.
As to `COc1cc(OCC2CN(Cc3cnc(NC(C)=O)s3)C2)ccn1` [Example 2-23, N-(5-((3-(((2-methoxypyridin-4-yl)oxy)methyl)azetidin-1-yl)methyl)thiazol-2-yl)acetamide], the IC50 came out at 670 nM.
Then `COc1cc(OC2CN(Cc3cnc(NC(C)=O)s3)C2)ccn1` [Example 2-3, N-(5-((3-((2-methoxypyridin-4-yl)oxy)azetidin-1-yl)methyl)thiazol-2-yl)acetamide], with 160 nM; and `CC(=O)Nc1ncc(CN2CC(Oc3ncc(F)cn3)C2)s1` [Example 2-2], with 530 nM; and `CC(=O)Nc1ncc(CN2CC(COc3cc(C)nc(C)n3)C2)s1` [Example 2-21, N-(5-((3-(((2,6-dimethylpyrimidin-4-yl)oxy)methyl)azetidin-1-yl)methyl)thiazol-2-yl)acetamide], with 1300 nM.
`COc1cc(O[C@@H]2CN(Cc3cnc(NC(C)=O)s3)[C@@H]2C)ncn1` (single isomer, unassigned) [Example 2-10]: the IC50 is 600 nM.
As to `COc1cc(OC2CN(Cc3cnc(NC(C)=O)s3)C2)ncn1` [Example 2-1, N-(5-((3-((6-methoxypyrimidin-4-yl)oxy)azetidin-1-yl)methyl)thiazol-2-yl)acetamide], the concentration for half-maximal inhibition (IC50) amounted to 407 nM.
Then `CC(=O)Nc1ncc(CN2CC(c3ncnc4sccc34)C2)s1` [Example 5-2], with 194 nM.

The record behind these values is US12421224B2 (BIOGEN MA INC., priority 2019, dated 2025).
